Data: ChEMBL document CHEMBL1201862, “PubChem BioAssay data set” (2004)
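Results reflect a 48-hour exposure of cells in 96-well plates to compound at five concentrations. GI50: concentration for 50% inhibition of growth.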 Calls of active or inactive are those of the source. Cut-off read from the data, not from the text of the source: active = GI50 up to about 1.1 µM and inactive = higher.

Experiments:
Test in all cases: NCI tumour cell line growth inhibition, 48 h
NCI-H23 = system: NCI-H23
MCF7 = system: MCF7
T47D = system: T47D
DU-145 = system: DU-145
HL-60 = system: HL-60
COLO 205 = system: COLO 205
HCT-15 = system: HCT-15
NCI/ADR-RES = system: NCI/ADR-RES
UACC-257 = system: UACC-257
Hs-578T = system: Hs-578T
CCRF-CEM = system: CCRF-CEM
RXF 393 = system: RXF 393
M14 = system: M14
TK-10 = system: TK-10
SNB-19 = system: SNB-19
OVCAR-3 = system: OVCAR-3
HCT-116 = system: HCT-116
786-0 = system: 786-0
K562 = system: K562
SF-295 = system: SF-295

Row | Structure (SMILES) | GI50 (NCI-H23) | GI50 (MCF7) | GI50 (T47D) | GI50 (DU-145) | GI50 (HL-60) | GI50 (COLO 205) | GI50 (HCT-15) [µM] | GI50 (NCI/ADR-RES) | GI50 (UACC-257) | GI50 (Hs-578T) | GI50 (CCRF-CEM) | GI50 (RXF 393) | GI50 (M14) | GI50 (TK-10) | GI50 (SNB-19) | GI50 (OVCAR-3) | GI50 (HCT-116) | GI50 (786-0) | GI50 (K562) | GI50 (SF-295)
1 | COC(C)(C)/C=C/c1[nH]c2ccccc2c1CC(=O)NCCc1cn(C(c2ccccc2)(c2ccccc2)c2ccccc2)cn1 | 4.41 µM (inactive) | 3.66 µM (inactive) | 2.71 µM (inactive) | > 31.6 µM (inactive) | 2.92 µM (inactive) | 2.02 µM (inactive) | 4.25 | 5.12 µM (inactive) | 4.02 µM (inactive) | 7.1 µM (inactive) | 3.68 µM (inactive) | 7.16 µM (inactive) | 4.53 µM (inactive) | 5.46 µM (inactive) | 7.5 µM (inactive) | 4.92 µM (inactive) | 4.12 µM (inactive) | 4.72 µM (inactive) | 3.17 µM (inactive) | 4.7 µM (inactive)
2 | O=[N+]([O-])c1ccc2c(c1)nc1n2C(c2c(F)cccc2F)SC1 (stereo not given) | > 100 µM (inactive) | > 100 µM (inactive) | > 100 µM (inactive) | > 100 µM (inactive) | > 100 µM (inactive) | > 100 µM (inactive) | > 100 | > 100 µM (inactive) | > 100 µM (inactive) | > 100 µM (inactive) | > 100 µM (inactive) | > 100 µM (inactive) | > 100 µM (inactive) | > 100 µM (inactive) | > 100 µM (inactive) | > 100 µM (inactive) | > 100 µM (inactive) | > 91.6 µM (inactive) | > 100 µM (inactive) | > 100 µM (inactive)
3 | CC(OCc1ccccc1)C(NC(=O)C1CSSCC(NC(=O)C(Cc2ccccc2)NC(=O)OCc2ccccc2)C(=O)NC(Cc2ccccc2)C(=O)NC(Cc2cn(C=O)c3ccccc23)C(=O)NC(CCCCNC(=O)OCc2ccccc2)C(=O)NC(C(C)OCc2ccccc2)C(=O)N1)C(N)=O (stereo not given) | 33.4 µM (inactive) | 8.02 µM (inactive) | 13.3 µM (inactive) | 30.5 µM (inactive) | 0.977 µM (active) | 3.03 µM (inactive) | 32 | > 100 µM (inactive) | 44 µM (inactive) | > 74.8 µM (inactive) | 36.6 µM (inactive) | 97.1 µM (inactive) | 21.1 µM (inactive) | 33.7 µM (inactive) | 36.7 µM (inactive) | 14 µM (inactive) | 17.7 µM (inactive) | 24.9 µM (inactive) | 16.4 µM (inactive) | > 85.7 µM (inactive)
4 | O=C(O)[C@H]1NC[C@H]2C(Br)=NO[C@@H]12 | > 100 µM (inactive) | > 100 µM (inactive) | > 100 µM (inactive) | > 100 µM (inactive) | > 100 µM (inactive) | > 100 µM (inactive) | > 100 | > 100 µM (inactive) | > 100 µM (inactive) | > 100 µM (inactive) | > 100 µM (inactive) | > 100 µM (inactive) | > 100 µM (inactive) | > 100 µM (inactive) | > 100 µM (inactive) | > 100 µM (inactive) | > 100 µM (inactive) | > 100 µM (inactive) | > 100 µM (inactive) | > 100 µM (inactive)
5 | c1ccc(CNc2c3c(nc4ccccc24)CCC3)cc1 | 16.3 µM (inactive) | 13.8 µM (inactive) | 12.7 µM (inactive) | 21.5 µM (inactive) | 0.0303 µM (active) | 10.4 µM (inactive) | 18.9 | 14.2 µM (inactive) | 13.6 µM (inactive) | 27.2 µM (inactive) | 3.79 µM (inactive) | 14 µM (inactive) | 13.7 µM (inactive) | 13 µM (inactive) | 23 µM (inactive) | 12.2 µM (inactive) | 9.1 µM (inactive) | 13.4 µM (inactive) | 5.58 µM (inactive) | 6.84 µM (inactive)
6 | Cc1ccc2oc3c(c(Br)c(Br)n3C)c(=O)c2c1 | 19.5 µM (inactive) | 90.6 µM (inactive) | 41.5 µM (inactive) | 78.9 µM (inactive) | > 100 µM (inactive) | > 100 µM (inactive) | > 100 | 20.4 µM (inactive) | 65.5 µM (inactive) | 18.5 µM (inactive) | > 100 µM (inactive) | 16.9 µM (inactive) | 31.3 µM (inactive) | 19 µM (inactive) | 17.8 µM (inactive) | 19.6 µM (inactive) | 15.7 µM (inactive) | 16.7 µM (inactive) | > 100 µM (inactive) | 20.4 µM (inactive)
7 | COC12C=CC(CC1)C(C)(C)C2OS(C)(=O)=O (stereo not given) | > 100 µM (inactive) | > 100 µM (inactive) | > 100 µM (inactive) | > 100 µM (inactive) | > 100 µM (inactive) | > 100 µM (inactive) | > 100 | > 100 µM (inactive) | > 100 µM (inactive) | > 100 µM (inactive) | > 100 µM (inactive) | > 100 µM (inactive) | > 100 µM (inactive) | > 100 µM (inactive) | > 100 µM (inactive) | > 100 µM (inactive) | > 100 µM (inactive) | > 100 µM (inactive) | > 100 µM (inactive) | > 100 µM (inactive)
8 | COc1cc2oc(-c3ccc(O)cc3)cc(=O)c2c(OC)c1O | > 100 µM (inactive) | > 100 µM (inactive) | 6.41 µM (inactive) | 94.8 µM (inactive) | 21.2 µM (inactive) | > 100 µM (inactive) | 92.7 | > 100 µM (inactive) | > 100 µM (inactive) | 58.5 µM (inactive) | > 100 µM (inactive) | 29 µM (inactive) | > 100 µM (inactive) | 51.4 µM (inactive) | 45.4 µM (inactive) | 80.9 µM (inactive) | 54 µM (inactive) | 36 µM (inactive) | 60.5 µM (inactive) | 62.5 µM (inactive)
9 | Cn1c2ccccc2n2c(N=O)c(-c3ccccc3)nc12 | 18.3 µM (inactive) | 29 µM (inactive) | 95.9 µM (inactive) | 23.7 µM (inactive) | 92.3 µM (inactive) | 10.2 µM (inactive) | 20.1 | 18.4 µM (inactive) | 34.3 µM (inactive) | 70.3 µM (inactive) | 30.5 µM (inactive) | 49.3 µM (inactive) | 19.6 µM (inactive) | 51.8 µM (inactive) | 30.1 µM (inactive) | 30.1 µM (inactive) | 87.9 µM (inactive) | > 100 µM (inactive) | > 100 µM (inactive) | 31.1 µM (inactive)
10 | CC12CCC(C(=O)n3c1nc1ccccc13)C(C)(C)O2 (stereo not given) | > 100 µM (inactive) | > 100 µM (inactive) | > 100 µM (inactive) | > 100 µM (inactive) | > 100 µM (inactive) | > 100 µM (inactive) | > 100 | > 100 µM (inactive) | > 100 µM (inactive) | 16.3 µM (inactive) | > 100 µM (inactive) | > 100 µM (inactive) | > 100 µM (inactive) | > 100 µM (inactive) | > 100 µM (inactive) | > 100 µM (inactive) | > 100 µM (inactive) | > 100 µM (inactive) | > 100 µM (inactive) | > 100 µM (inactive)
11 | COC(=O)C1=C(C)NC(C)=C(C(=O)OC)C1c1ccc(NO)cc1 | 21.3 µM (inactive) | 8.11 µM (inactive) | 7.23 µM (inactive) | 19.1 µM (inactive) | 1.53 µM (inactive) | 12.5 µM (inactive) | 10.9 | 18.8 µM (inactive) | 11 µM (inactive) | 10.8 µM (inactive) | 0.897 µM (active) | 15.8 µM (inactive) | 14.6 µM (inactive) | 16.5 µM (inactive) | 24.6 µM (inactive) | 12.9 µM (inactive) | 7.59 µM (inactive) | 15.5 µM (inactive) | 1.86 µM (inactive) | 17 µM (inactive)
12 | [N-]=[N+]=CC(=O)C1CCN(c2ccccc2)C1=O (stereo not given) | > 10 µM (inactive) | > 10 µM (inactive) | > 10 µM (inactive) | > 10 µM (inactive) | > 10 µM (inactive) | > 10 µM (inactive) | > 10 | > 10 µM (inactive) | > 10 µM (inactive) | > 10 µM (inactive) | > 10 µM (inactive) | > 10 µM (inactive) | > 10 µM (inactive) | > 10 µM (inactive) | > 10 µM (inactive) | > 10 µM (inactive) | > 10 µM (inactive) | > 10 µM (inactive) | > 10 µM (inactive) | > 10 µM (inactive)
13 | O=C1Nc2cc([N+](=O)[O-])ccc2N/C1=C/C(=O)c1ccc(Cl)cc1 | 14.2 µM (inactive) | 11.2 µM (inactive) | 13.5 µM (inactive) | 6.71 µM (inactive) | 19.8 µM (inactive) | 24.4 µM (inactive) | 12.6 | 7.71 µM (inactive) | 27.5 µM (inactive) | 11.5 µM (inactive) | 10.5 µM (inactive) | 3.39 µM (inactive) | 12.9 µM (inactive) | 3.9 µM (inactive) | 11.2 µM (inactive) | 20.1 µM (inactive) | 3.24 µM (inactive) | 3.13 µM (inactive) | 3.64 µM (inactive) | 13.3 µM (inactive)
14 | CC(C)OC(=O)C(NC(=O)C(CC(=O)OCc1ccccc1)NC(=O)OCc1ccccc1)NC(=O)C1C(C)(C)CCC1(C)C (stereo not given) | 10.2 µM (inactive) | 14.9 µM (inactive) | 26.5 µM (inactive) | 22.9 µM (inactive) | 3.76 µM (inactive) | 2.99 µM (inactive) | 11 | 4.98 µM (inactive) | 30.3 µM (inactive) | 6.98 µM (inactive) | 3.18 µM (inactive) | 4.43 µM (inactive) | 21.5 µM (inactive) | 18.8 µM (inactive) | 4.29 µM (inactive) | 2.77 µM (inactive) | 3.61 µM (inactive) | 2.22 µM (inactive) | 4.31 µM (inactive) | 14.1 µM (inactive)
